From PMC7580737, “Synthesis, in vitro inhibitory activity, kinetic study and molecular docking of novel N-alkyl–deoxynojirimycin derivatives as potential α-glucosidase inhibitors” (Journal of Enzyme Inhibition and Medicinal Chemistry, 2020) come the findings set out here.

The target in series [1] is α-glucosidase (EC 3.2.1.20) (Saccharomyces cerevisiae, UniProt P53341). As to the kind of experiment: biochemical. The series is classed as biochemical.
The target of series [2] is T1, α-glucosidase (Saccharomyces cerevisiae, UniProt P53341).
T1 construct: purchased Sigma-Aldrich
T1 sequence (P53341 whole entry): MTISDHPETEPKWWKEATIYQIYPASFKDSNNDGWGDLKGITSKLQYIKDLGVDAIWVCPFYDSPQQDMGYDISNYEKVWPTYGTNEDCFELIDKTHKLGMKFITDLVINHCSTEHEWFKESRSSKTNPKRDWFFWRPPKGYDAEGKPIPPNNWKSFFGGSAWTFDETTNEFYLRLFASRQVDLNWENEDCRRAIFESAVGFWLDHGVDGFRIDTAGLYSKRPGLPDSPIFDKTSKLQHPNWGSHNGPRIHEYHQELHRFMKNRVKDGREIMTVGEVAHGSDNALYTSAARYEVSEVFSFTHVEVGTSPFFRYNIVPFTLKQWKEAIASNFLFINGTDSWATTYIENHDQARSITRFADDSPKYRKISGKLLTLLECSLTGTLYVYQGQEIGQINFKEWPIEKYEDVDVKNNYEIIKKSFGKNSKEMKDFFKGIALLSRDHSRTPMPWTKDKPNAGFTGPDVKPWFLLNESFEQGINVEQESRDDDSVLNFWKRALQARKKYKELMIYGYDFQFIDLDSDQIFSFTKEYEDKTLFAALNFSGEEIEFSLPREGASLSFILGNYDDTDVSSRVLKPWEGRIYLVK
The series can be described thus: Kinetic study of α-glucosidase inhibition (Lineweaver–Burk plots). The conditions noted are these: for Type of inhibition: Lineweaver–Burk plots: Vmax not affected, Km increased; for Ki: determined by Lineweaver–Burk plots. The series is classed as biochemical. The protocol:
The type of inhibition and value of Ki were determined by Lineweaver–Burk plots.
The 10 µL of enzyme solution (1 U/mL) was incubated with different concentrations of compound 43 (0.00 mM,0.012 mM, 0.02 mM, 0.04 mM), 40 (0.00 mM, 0.06 mM, 0.10 mM, 0.20 mM)and 34 (0.00 mM, 0.30 mM, 0.50 mM, 1.00 mM) for 20 min at 37 °C, then added different concentrations of substrate (1 mM, 0.9 mM, 0.75 mM, 0.6 mM, 0.45 mM, 0.3 mM, 0.25 mM), and change in absorbance was measured for 20 min at 405 nm by using spectrophotometer.

[3] abbreviates: phosphate buffer pH 6.8, 37 °C, PNPG substrate, mean ± SD, at least three experiments, read-out: IC50 (α-glucosidase inhibitory activity).

Read-outs that look alike come from different tables or passages of the source. A value given as a limit tells only on which side of the number the result lay.

Chain of α-glucosidase (EC 3.2.1.20) (P53341 whole entry): as above

For `CCOC(=O)C=Cc1ccc(OCCCCCN2CC(O)C(O)C(O)C2CO)c(OC)c1` (stereo not drawn) [Compound 38], the IC50 in series [1] (setting [3]) was above 2000 µM.

The molecule `COC(=O)C=Cc1ccc(OCCCCCCN2CC(O)C(O)C(O)C2CO)cc1` (stereo not drawn) [Compound 34] returned a melting point of 110 to 113 °C. For the same molecule, it took 417 ± 0.14 µM to reach half-maximal inhibition in series [1] (IC50). Further, in series [2], the Type of inhibition entry is “competitive inhibitors” and the inhibitory constant (Ki) was 150 µM.

`O=C(/C=C/c1ccccc1)OCCCCCCN1C[C@H](O)[C@@H](O)[C@H](O)[C@H]1CO` [Compound 29] displayed an IC50 in series [1] of 976.5 ± 0.7 µM.

In turn, `O=C(/C=C/c1ccccc1)OCCN1C[C@H](O)[C@@H](O)[C@H](O)[C@H]1CO` [Compound 25, 2-(3,4,5-Trihydroxy-2-(hydroxymethyl)piperidin-1-yl) ethyl cinnamate] showed an IC50 in series [1] of 1094 ± 1.8 µM.

For `CCOC(=O)/C=C/c1ccc(OCCN2CC(O)C(O)C(O)C2CO)c(OC)c1` (stereo not drawn) [Compound 35, Ethyl(E)-3-(3-methoxy-4-(2-(3,4,5-trihydroxy-2-(hydroxymethyl)piperidin-1-yl)ethoxy)phenyl)acrylate], the melting point was in the range of 146 to 148 °C. The molecule also returned an IC50 in series [1] of 966.2 ± 0.4 µM.

`CCOC(=O)C=Cc1ccc(OCCCCCCN2CC(O)C(O)C(O)C2CO)c(OC)c1` (stereo not drawn) [Compound 39, Ethyl(E)-3-(3-methoxy-4-(6-(3,4,5-trihydroxy-2-(hydroxymethyl)piperidin-1-yl)ethoxy)phenyl)acrylate]: the IC50 in series [1] (setting [3]) was above 2000 µM.

`CCOC(=O)C=Cc1ccc(OCCCCN2CC(O)C(O)C(O)C2CO)c(OC)c1` (stereo not drawn) [Compound 37]: in series [1] (setting [3]), the IC50 was above 2000 µM.

`COC(=O)C=Cc1ccc(OCCCCN2CC(O)C(O)C(O)C2CO)cc1` (stereo not drawn) [Compound 32]: the melting point was 157 to 160 °C. Further, the IC50 in series [1] was found to be 667 ± 1.6 µM.

Consider `COC(=O)C=Cc1ccc(OCCCN2CC(O)C(O)C(O)C2CO)cc1` (stereo not drawn) [Compound 31], for which the melting point lay in the range of 104 to 107 °C. The IC50 in series [1] (setting [3]) was above 2000 µM.

On to `COC(=O)/C=C/c1ccc(OCCN2CC(O)C(O)C(O)C2CO)cc1` (stereo not drawn) [Compound 30, Methyl(E)-3-(4-(2-(3,4,5-trihydroxy-2-(hydroxymethyl)piperidin-1-yl)ethoxy)phenyl) acrylate], for which the melting point fell in the range of 185 to 187 °C. The molecule also gave an IC50 in series [1] of 1272.2 ± 1.2 µM.

In the case of `COC(=O)C=Cc1ccc(OCCCCCN2CC(O)C(O)C(O)C2CO)cc1` (stereo not drawn) [Compound 33], the melting point was 85 to 86 °C. Besides, in series [1], inhibition was half-maximal at 602.3 ± 1.2 µM (IC50).

Regarding `O=C(C=Cc1ccccc1)c1ccccc1OCCCCCN1CC(O)C(O)C(O)C1CO` (stereo not drawn) [Compound 43], in series [1], the midpoint of inhibition, the IC50, lay at 30 ± 0.6 µM; the “fold more active than 1-DNJ” value is recorded as around 7 fold; the “fold more active than acarbose” value is on record as around 27 fold. Also, in series [2], the Type of inhibition result was “competitive inhibitors” and the Ki stood at 10 µM.

In series [1], `O=C(/C=C/c1ccccc1)OCCCN1C[C@H](O)[C@@H](O)[C@H](O)[C@H]1CO` [Compound 26, 3-(3,4,5-Trihydroxy-2-(hydroxymethyl)piperidin-1-yl) ethyl cinnamate] came in with an IC50 of 1099 ± 1.1 µM.

Consider `CCOC(=O)C=Cc1ccc(OCCCN2CC(O)C(O)C(O)C2CO)c(OC)c1` (stereo not drawn) [Compound 36], for which the IC50 in series [1] (setting [3]) is above 2000 µM.

As to `O=C(/C=C/c1ccccc1)c1ccccc1OCCN1CC(O)C(O)C(O)C1CO` (stereo not drawn) [Compound 40, (E)-3-phenyl-1-(2-(2-(3,4,5-trihydroxy-2-(hydroxymethyl)piperidin-1-yl)ethoxy)phenyl)prop-2-en-1-one], in series [1], the IC50 came to 160.5 ± 0.6 µM and the “fold more active than acarbose” value was “around 5 fold”. Besides, in series [2], the Type of inhibition result was “competitive inhibitors” and the Ki was found to be 52 µM.
